Consider ten compounds from article PMC10740156, “Discovery of potential WEE1 inhibitors via hybrid virtual screening” (Frontiers in Pharmacology, 2023).

Structures can show the parent of a compound that is named as a salt.

One test addresses WEE1 kinase (Homo sapiens, UniProt P30291). Description: Inhibitory activity assay (ADP-Glo kinase assay). Format: biochemical. The following applies: for IC50: WEE1 kinase; for Inhibition Rate / inhibition at 25 µM: compound 25 μM, relative inhibition rate, Staurosporine (10 µM) as positive control. The procedure:
The tested compounds were dissolved in DMSO to make a 10 mM stock solution, which was further diluted to a drug solution of 25 µM. […] Transfer 20 nL compound to 384 assay plate by Echo 655. […] 8 μL of kinase detection reagent was added to the well, and incubated for 40 min at 25°C. Read the RLU (relative light-emitting unit) signal using the BMG multifunction microplate reader, and the signal intensity is used to characterize the degree of kinase activity. […] Staurosporine is a prototypical ATP-competitive kinase inhibitor in that it binds to many kinases with high affinity. The inhibition rates were calculated using the equations (X: log of inhibitor concentration; Y: % Inhibition). Assays were performed on three independent experiments. Y=Bottom+Top – Bottom/(1+10^ (LogIC50 – X×hillslope))
For orientation: ADP-Glo first removes unused ATP, then detects ADP through luciferase.

Test [1] concerns A549 cells. Description: Cell cycle analysis (PI staining flow cytometry). Format: cell-based, human. The following applies: 2 μM, 24 h. The method, then: (§1) For cell cycle detection, Cells were harvested and gently washed with PBS, and fixed with 70% cold ethanol −20°C overnight. After centrifugation, Cells were retained for precipitation and incubated with PI/RNase Staining Buffer (BD Bioscience, Oxford, United Kingdom) for 15 min in the dark at 37°C.
(§2) All samples were acquired by flow cytometry (FACS CantoⅡ, BD Bioscience) and analysed with Flowjo software version 10.4.
(In general: A flow cytometer gives signals particle by particle.)

For test [2], the system named is PC9 cells. The experiment in a line: Cell cycle analysis (PI staining flow cytometry). The format is cell-based, human. To be noted: 500 nM, 24 h, compared to blank group. The procedure:
as §1, §2

Test [3] deals with A549 cells. The experiment in a line: Anti-proliferation activity assay (CCK-8). Format: cell-based. To be noted: Homo sapiens, 72 h. The method, then:
(§3) Anti-proliferation activity assay was detected by Cell Counting Kit-8 detection kit (CCK-8, #K1018) provided by Apexbio (United States). In brief, cells were seeded in 96-wells plates at a density of 3 × 10^3/well for 24 h. Then, cells were treated with indicated concentrations of compounds for 72 h. Supernatant was totally removed, and 100 μL of CCK-8 solution was added to each well and cultured for another 1 h at 37°C. The absorbance of plates was measured by SpectraMax M2 (Molecular Devices, San Jose, CA, United States) at 450 nm. […] Assays were performed on three independent experiments.

The next test deals with Bel-7402 cells. The experiment in a line: Anti-proliferation activity assay (CCK-8). The format is cell-based. The following applies: Homo sapiens, 72 h. The method, then: as §3
For test [4], the system named is A549 cells. Description: Cell apoptosis analysis (Annexin V/PI flow cytometry). Format: cell-based, human. The following applies: 2 μM, 72 h; for percentage of apoptotic cells (early apoptosis + late apoptosis): blank control 9.86%. The procedure: (§4) For apoptosis detection, Cells were performed with Pharmingen FITC Annexin V Detection KitⅠ(BD Bioscience, Oxford, UK). Briefly, Cells were harvested and washed once with 1×binding buffer and then incubated with Annexin V and Propidium Iodide (PI) for 15 min in the dark at 37°C.
as §2

Test [5] deals with PC9 cells. The test is described as above. Format: cell-based, human. To be noted: 500 nM, 72 h; for percentage of apoptotic cells (early apoptosis + late apoptosis): blank control 13.24%. The procedure: as §4, §2
In the next test the test system is HuH-7 cells. The experiment in a line: Anti-proliferation activity assay (CCK-8). The format is cell-based, human. The method, then:
as §3

Test [6] relates to PC9 cells. Description: Anti-proliferation activity assay (CCK-8). To be noted: Homo sapiens, PC-9, 72 h. The format is cell-based. The procedure: as §3

Chain of WEE1 kinase (P30291 whole entry): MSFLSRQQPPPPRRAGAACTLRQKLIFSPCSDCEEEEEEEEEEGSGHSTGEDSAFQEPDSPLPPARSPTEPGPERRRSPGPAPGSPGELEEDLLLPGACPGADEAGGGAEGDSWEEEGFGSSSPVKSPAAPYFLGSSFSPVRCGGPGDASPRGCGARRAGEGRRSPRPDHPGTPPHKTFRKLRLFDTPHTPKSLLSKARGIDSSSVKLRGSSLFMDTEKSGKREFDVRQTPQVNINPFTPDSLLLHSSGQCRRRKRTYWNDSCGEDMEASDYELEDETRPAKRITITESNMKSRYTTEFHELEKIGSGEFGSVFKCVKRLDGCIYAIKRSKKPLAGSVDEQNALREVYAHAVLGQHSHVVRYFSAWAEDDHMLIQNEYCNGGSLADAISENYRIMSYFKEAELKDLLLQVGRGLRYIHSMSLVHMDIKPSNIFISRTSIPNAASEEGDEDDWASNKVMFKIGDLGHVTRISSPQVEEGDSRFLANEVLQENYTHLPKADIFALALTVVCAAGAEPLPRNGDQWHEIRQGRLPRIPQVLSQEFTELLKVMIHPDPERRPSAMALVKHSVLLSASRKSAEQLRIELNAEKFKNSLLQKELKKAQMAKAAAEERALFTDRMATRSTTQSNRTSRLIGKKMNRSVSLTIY

What is called IC50 is the concentration that gives 50% inhibition. Lower therefore signals higher potency. A word on the inhibition: it is the relative decrease from the control value, in per cent. Higher therefore signals a strong effect. On to `CCN1CCN(C(=O)Cc2ccc(Nc3ncc(F)c(Nc4ccc(C(=O)Nc5ccccc5Cl)cc4)n3)cc2)CC1` [Compound 8, TCS7010], for which, on WEE1 kinase, half-maximal inhibition (IC50) was put at 797 nM, the “Inhibition Rate” value is on record as 95.45 ± 2.24% and the inhibition at 25 µM is about 100%.
Regarding `CCN1CCN(Cc2ccc(-c3cc4c(N[C@H](C)c5ccccc5)ncnc4[nH]3)cc2)CC1` [Compound 2, AEE788], on WEE1 kinase, the IC50 was 103 nM and the “Inhibition Rate” value turned out to be 134.70 ± 1.61%.
As to `CNC(=O)c1ccccc1Nc1nc(Nc2ccc(N3CCN(CCCN)CC3)cc2)ncc1Cl` [Compound 4, GSK3182571], at WEE1 kinase, half-maximal inhibition (IC50) was put at 1.07 nM and the “Inhibition Rate” value is 126.59 ± 1.66%. The cell cycle distribution entry in the test with A549 cells [1] is on record as “no significant change”. In addition, in the test with PC9 cells [2], the “proportion of cells in the G1 phase” value was “significantly increased” and the “proportion of cells in the G2 phase” value is listed as “did not change significantly”. Moreover, inhibition with A549 cells [3] was half-maximal at 5170 nM (IC50). This compound showed a concentration for half-maximal inhibition (IC50) with Bel-7402 cells of 147 nM. In the test with A549 cells [4], the “Q2% (late apoptosis rate)” value is reported as 8.55%, the “Q3% (early apoptosis rate)” value amounted to 9.18%, the “Q4 (flow cytometry quadrant)” value was determined as 82.2 and the “percentage of apoptotic cells (early apoptosis + late apoptosis)” value (“percentage of apoptotic cells” for short) worked out at 17.73%. In the test on PC9 cells [5], the “Q1 (flow cytometry quadrant)” value amounted to 0.014, the “Q2% (late apoptosis rate)” value was found to be 4.55%, the “Q3% (early apoptosis rate)” value amounted to 80.2% and the “Q4 (flow cytometry quadrant)” value was determined as 15.2. In addition, in the test on PC9 cells [5], the “percentage of apoptotic cells” value is 84.75%. This compound returned an IC50 in the test with HuH-7 cells (72 h) of 875 nM. Further, in the test on HuH-7 cells (Homo sapiens, Huh-7, 72 h), the IC50 came out at 880 nM.
At WEE1 kinase, `CN1CCCN(C(=O)c2cccc(-c3ccc(/C=C4/C(=O)Nc5ccc(Cl)cc54)o3)c2)CC1` [Compound 6, CX-6258 hydrochloride] yielded an inhibition at 25 µM of 24.8 ± 2.33%.
Still for that read-out and setting: the result for `C[C@@H](Oc1ccc2[nH]nc(/C=C/c3cnn(CCO)c3)c2c1)c1c(Cl)cncc1Cl` [Compound 9, LY2874455] reads 58.2 ± 4.03%.
With `CNS(=O)(=O)c1ccccc1Nc1nc(Nc2ccc(N3CCN(C)CC3)cc2OC)ncc1Cl` [Compound 3, ALK inhibitor 2], on WEE1 kinase, the midpoint of inhibition, the IC50, lay at 988 nM and the “Inhibition Rate” value is 127.17 ± 1.08%.
With `C=CCn1c(=O)c2cnc(Nc3ccc(N4CCN(C)CC4)cc3)nc2n1-c1cccc(C(C)(C)O)n1` [AZD1775, Adavosertib, reference compound], in the test with A549 cells [1], the cell cycle distribution entry is “no significant change”. For the same compound, in the test with A549 cells [4], the “Q2% (late apoptosis rate)” value worked out at 5.52%, the “Q3% (early apoptosis rate)” value turned out to be 11.1%, the “Q4 (flow cytometry quadrant)” value came out at 83.3 and the “percentage of apoptotic cells” value is reported as 16.62%. Also, in the test with PC9 cells [5], the “Q1 (flow cytometry quadrant)” value is listed as 0.015, the “Q2% (late apoptosis rate)” value is recorded as 5.20%, the “Q3% (early apoptosis rate)” value is 22.0% and the “Q4 (flow cytometry quadrant)” value turned out to be 72.8. Also, the “percentage of apoptotic cells” value in the test on PC9 cells [5] is given as 27.20%.
In the case of Denfivontinib [Compound 1], the “Inhibition Rate” value at WEE1 kinase came out at 64.18 ± 1.16%.
Regarding `COc1cc(-c2cc(-c3ccc(N4CCNCC4)cc3)cnc2C)cc(OC)c1OC` [Compound 10, LDN-214117], the inhibition at 25 µM on WEE1 kinase worked out at 32.77 ± 0.22%.
As for `CNC(=O)c1nn(C)c2c1C(C)(C)Cc1cnc(Nc3ccc(N4CCN(C)CC4)cc3)nc1-2` [Compound 5, Milciclib], the 50% inhibitory concentration (IC50) against WEE1 kinase was 3.77 nM; in the test on PC9 cells [6], 8880 nM; with HuH-7 cells (Homo sapiens, Huh-7, 72 h) it was 80000 nM. The “Inhibition Rate” value at WEE1 kinase is on record as 137.84 ± 1.08%.
